In ChEMBL document CHEMBL1201862, “PubChem BioAssay data set” (2004):
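Cells were grown in 96-well plates and exposed to each compound for 48 hours at five concentrations; endpoints were interpolated linearly between bracketing concentrations, or set to the highest concentration if not reached. Abbreviation: GI50, concentration required for 50% inhibition of growth.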 Active and inactive are the calls of the source. Cut-off read from the data, not from the text of the source: active = GI50 up to about 1.1 µM and inactive = higher.

Experiments:
Test in all cases: growth of human tumour cells (NCI), 48 h
SNB-75 = test system: SNB-75
786-0 = test system: 786-0
BT-549 = test system: BT-549
ACHN = test system: ACHN
OVCAR-5 = test system: OVCAR-5
EKVX = test system: EKVX
SF-295 = test system: SF-295
SR = test system: SR
UACC-62 = test system: UACC-62
M14 = test system: M14
RPMI-8226 = test system: RPMI-8226
SF-268 = test system: SF-268
HT-29 = test system: HT-29
HOP-92 = test system: HOP-92
OVCAR-4 = test system: OVCAR-4
NCI-H522 = test system: NCI-H522

Compound | GI50 (SNB-75) | GI50 (786-0) | GI50 (BT-549) | GI50 (ACHN) | GI50 (OVCAR-5) | GI50 (EKVX) | GI50 (SF-295) | GI50 (SR) | GI50 (UACC-62) | GI50 (M14) | GI50 (RPMI-8226) | GI50 (SF-268) | GI50 (HT-29) | GI50 (HOP-92) | GI50 (OVCAR-4) | GI50 (NCI-H522)
O/N=N/c1ccccn1.OCC1OC2OC3C(CO)OC(OC4C(CO)OC(OC5C(CO)OC(OC6C(CO)OC(OC7C(CO)OC(OC1C(O)C2O)C(O)C7O)C(O)C6O)C(O)C5O)C(O)C4O)C(O)C3O (stereo not drawn) | 37.6 µM (inactive) | > 100 µM (inactive) | 30.8 µM (inactive) | > 100 µM (inactive) | > 100 µM (inactive) | > 100 µM (inactive) | > 100 µM (inactive) | 0.583 µM (active) | 47.9 µM (inactive) | 30.8 µM (inactive) | 27.3 µM (inactive) | > 100 µM (inactive) | > 100 µM (inactive) | > 100 µM (inactive) | > 100 µM (inactive) | 68.2 µM (inactive)
CCOC(=O)C(SCCO)C(C(=O)OCC)n1ccc(N)nc1=O (stereo not drawn) | > 100 µM (inactive) | > 100 µM (inactive) | > 100 µM (inactive) | > 100 µM (inactive) | > 100 µM (inactive) | > 100 µM (inactive) | > 100 µM (inactive) | > 100 µM (inactive) | > 100 µM (inactive) | > 100 µM (inactive) | > 100 µM (inactive) | > 100 µM (inactive) | > 100 µM (inactive) | > 100 µM (inactive) | > 100 µM (inactive) | > 100 µM (inactive)
CC1CC(C)CN(S(=O)(=O)c2cc(Cl)c(Oc3ccc([N+](=O)[O-])cc3Cl)c(Cl)c2)C1 (stereo not drawn) | > 100 µM (inactive) | > 100 µM (inactive) | > 100 µM (inactive) | > 100 µM (inactive) | > 100 µM (inactive) | > 100 µM (inactive) | > 100 µM (inactive) | > 100 µM (inactive) | > 100 µM (inactive) | > 100 µM (inactive) | > 100 µM (inactive) | > 100 µM (inactive) | > 100 µM (inactive) | > 100 µM (inactive) | > 100 µM (inactive) | > 100 µM (inactive)
CCOC(=O)C1=C(C)N(Cc2ccc(Cl)cc2Cl)C2(O)C=CC(=O)C3C(=O)N(c4ccccc4)C(=O)C132 (stereo not drawn) |  | 3.24 µM (inactive) | 1.3 µM (inactive) | 1.71 µM (inactive) | 3.17 µM (inactive) | 1.89 µM (inactive) | 2.88 µM (inactive) | 0.51 µM (active) | 1.63 µM (inactive) | 3.27 µM (inactive) | 0.308 µM (active) | 2.38 µM (inactive) | 1.69 µM (inactive) | 1.78 µM (inactive) | 1.51 µM (inactive) | 1.72 µM (inactive)
N#Cc1cc(C#N)c(N)nc1N | > 100 µM (inactive) | > 100 µM (inactive) | > 100 µM (inactive) | > 100 µM (inactive) | > 100 µM (inactive) | > 100 µM (inactive) | > 100 µM (inactive) | 19.1 µM (inactive) | > 100 µM (inactive) | > 100 µM (inactive) | > 100 µM (inactive) |  | > 100 µM (inactive) | > 100 µM (inactive) | > 100 µM (inactive) | > 100 µM (inactive)
N#Cc1nc(-c2ccco2)oc1N | > 10 µM (inactive) | > 10 µM (inactive) | > 10 µM (inactive) | > 10 µM (inactive) | > 10 µM (inactive) | > 10 µM (inactive) | > 10 µM (inactive) | > 10 µM (inactive) | > 10 µM (inactive) | > 10 µM (inactive) | > 10 µM (inactive) | > 10 µM (inactive) | > 10 µM (inactive) | > 10 µM (inactive) | > 10 µM (inactive) | > 10 µM (inactive)
CCNc1cc2c(cc1O)CC[C@@H]1[C@@H]2CC[C@]2(C)[C@@H](O)CC[C@@H]12 | 0.272 µM (active) | 9.91 µM (inactive) | 15.6 µM (inactive) | 8.83 µM (inactive) | 20.3 µM (inactive) | 16.3 µM (inactive) | 0.912 µM (active) | 1.31 µM (inactive) |  | 1.78 µM (inactive) | 2.31 µM (inactive) | 15.8 µM (inactive) | 15.8 µM (inactive) | 10.3 µM (inactive) | 8.26 µM (inactive) | 2.04 µM (inactive)
CCCCc1ccc(-n2sc3ncc([N+](=O)[O-])cc3c2=O)cc1 | 4.22 µM (inactive) | 15 µM (inactive) | 17.2 µM (inactive) | 14.8 µM (inactive) | 13.4 µM (inactive) | 13.6 µM (inactive) | 10.5 µM (inactive) | 16 µM (inactive) | 8.69 µM (inactive) | 17.4 µM (inactive) | 9.12 µM (inactive) | 13 µM (inactive) | 13.8 µM (inactive) |  | 6.58 µM (inactive) | 1.2 µM (inactive)
CSc1c(C(N)=S)c(N)nn1-c1ccccc1 | > 100 µM (inactive) | > 100 µM (inactive) | > 100 µM (inactive) |  | > 100 µM (inactive) | > 100 µM (inactive) |  | > 100 µM (inactive) | > 100 µM (inactive) | > 100 µM (inactive) | > 100 µM (inactive) | > 100 µM (inactive) | > 100 µM (inactive) | > 100 µM (inactive) | > 100 µM (inactive) | > 100 µM (inactive)
